# Measured values reported in patent publication US6242433A, “Geranylgeranyl-derivatives, process for the preparation thereof and related pharmaceutical compositions” (Laboratori Baldacci SpA, priority 1995, dated 2001).
# Counter-ions that a name gives are not always drawn. Like-named read-outs stand apart in the source and are kept apart here.
# What was measured:
# [1] = tested on: MIA PaCa-2 cell line; test: citotoxicity on human pancreas cancer MIA PaCa-2 cell line; assay type: cell-based
# Text: The relevance of such an effect on cell proliferation has been then evaluated by studying the citotoxicity of the above-mentioned compounds on the of human pancreas cancer MIA PaCa-2 cell line following the method described by R. Danesi et. al., Mol. Pharmacol., 47, 1106, 1995.
# (§1) The citotoxicity of the geranylgeranyl-derivatives BAL9504 and BAL9503 has also been evaluated on the normal diploid fibroblast cells MRC-5 from human lung following the method described by R. Danesi et. al., Mol. Pharmacol., 47, 1106, 1995. Table 2 reports the concentration of the compounds under study that produces 50% growth inhibition (IC50) in MRC-5 and MIA PaCa-2 cell lines together with the sensibility index, that is the ratio between the IC50 in MRC-5 and MIA PaCa-2 cells.
# [2] = tested on: MIA PaCa-2 cell line; test: apoptosis in MIA PaCa-2 cells (ELISA of fragmented DNA); assay type: cell-based, human; conditions: 1-75 μM; vs non-treated cells
# Text: Apoptosis consists in enzymatic digestion of nuclear DNA by endogenous nucleases within the cell and it occurs when cell replication is impaired by agents that block cell cycle progression towards mitosis.
# [3] = tested on: p21rap1; test: inhibition of p21rap1 geranylgeranylation in a malignant tumoral human cell line (electrophoresis, PVDF membrane, specific polyclonal antibody); assay type: cell-based; conditions: 75 μM; 24 hours
# Protocol: The ability of the compounds according to the present invention of inhibiting the protein geranylgeranylation has been evaluated by means of an in vitro test on a malignant tumoral human cell line which has been treated with the following geranylgeranyl-derivatives:
# The cells have been treated with increasing amounts of the geranylgeranyl derivatives BAL9504, BAL9505, BAL9603, BAL9605, BAL9608, BAL9609, BAL9610, BAL9611, BAL9613, BAL9503, BAL9614, (1-75 μM) and, after 24 hours, they have been collected and solubilized in a lysis solution containing non-ionic detergents. The soluble fraction has been collected by centrifugation and proteins separated by means of acrylamide gel electrophoresis and subsequently transferred onto a polyvinylidene fluoride (PVDF) membrane.
# The presence of the geranylgeranylated protein p21rap1 has been then evidenced by means of a specific polyclonal antibody followed by chemiluminescent detection by means of a secondary antibody linked to alkaline phosphatase as previously described (M. A. Mansfield, FASEB J., S, A1428, 1994).
# [4] = tested on: normal diploid fibroblast cells MRC-5; test: citotoxicity on normal diploid fibroblast cells MRC-5 from human lung; assay type: cell-based; conditions: Table 2; for IC50: Homo sapiens, MRC5, MRC-5, read-out: IC50 (50% growth inhibition); for Sensibility Index (ratio between the IC50 in MRC-5 and MIA PaCa-2 cells): IC50 MRC-5 / IC50 MIA PaCa-2
# Text: as §1
# [5] = Table 1, read-out: IC50 (the concentration that produces 50% reduction in cell growth)
# [6] = Table 2, read-out: IC50 (50% growth inhibition)
SMILES,"IC50 [1, 5] [µM]","IC50 [1, 6] [µM]",induction of death for apoptosis [2],amount of the non-isoprenylated protein relative to the isoprenylated one (p21rap1) [3],IC50 [4] [µM],Sensibility Index (ratio between the IC50 in MRC-5 and MIA PaCa-2 cells) [4]
"CC(C)=CCC/C(C)=C/CC/C(C)=C/CC/C(C)=C/COC(=O)NS(N)(=O)=O [BAL9503, (E,E,E)-O-(3,7,11,15-tetramethyl-2,6,10,14-hexadecatetraenyl)-N-(aminosulfonyl)urethane]",10.5,10.5,induce death for apoptosis,equal to that of the isoprenylated one,256,24.4
"CC(C)=CCC/C(C)=C/CC/C(C)=C/CC/C(C)=C/CONC(=O)CP(=O)(O)O [BAL9504, dipotassium salt of (E,E,E)-{2-oxo-2-[[(3,7,11,15-tetramethyl-2,6,10,14-hexadecatetraenyl)oxy]amino]ethyl}phosphonic acid]",2.1,2.1,induce death for apoptosis,equal to that of the isoprenylated one,54.6,26
"CCOP(=O)(O)CC(=O)NOC/C=C(\C)CC/C=C(\C)CC/C=C(\C)CCC=C(C)C [BAL9505, monosodium salt of the monoethyl-ester of (E,E,E)-{2-oxo-2[[(3,7,11,15-tetramethyl-2,6,10,14-hexadecatetraenyl)oxy]amino]ethyl}phosphonic acid]",> 30,–,–,equal to that of the isoprenylated one,–,–
"CC(C)=CCC/C(C)=C/CC/C(C)=C/CC/C(C)=C/CONC(=O)CCP(=O)(O)O [BAL9603, dipotassium salt of (E,E,E)-{3-oxo-3-[[(3,7,11,15-tetramethyl-2,6,10,14-hexadecatetraenyl)oxy]amino]propyl}phosphonic acid]",> 30,–,–,–,–,–
"CC(C)=CCC/C(C)=C/CC/C(C)=C/CC/C(C)=C/CNC(=O)CP(=O)(O)O [BAL9605, dipotassium salt of (E,E,E)-[2-oxo-2-[(3,7,11,15-tetramethyl-2,6,10,14-hexadecatetraenyl)amino]ethyl]phosphonic acid]",7.7,–,induce death for apoptosis,–,–,–
"CC(C)=CCC/C(C)=C/CC/C(C)=C/CC/C(C)=C/CNC(=O)CCP(=O)(O)O [BAL9608, dipotassium salt of (E,E,E)-[3-oxo-3-[(3,7,11,15-tetramethyl-2,6,10,14-hexadecatetraenyl)amino]propyl]phosphonic acid]",16.7,–,–,–,–,–
"CC(C)=CCC/C(C)=C/CC/C(C)=C/CC/C(C)=C/CCP(=O)(O)CP(=O)(O)O [BAL9609, tripotassium salt of (E,E,E)-[[(4,8,12,16-tetramethyl-3,7,11,15-heptadecatetraenyl)hydroxyphosphoryl]methyl]phosphonic acid]",3.5,–,induce death for apoptosis,–,–,–
"CC(C)=CCC/C(C)=C/CC/C(C)=C/CC/C(C)=C/CCP(=O)(O)C(C)(C)P(=O)(O)O [BAL9610, tripotassium salt of (E,E,E)-1-methyl-1[(4,8,12,16-tetramethyl-3,7,11,15-heptadecatetraenyl)hydroxyphosphoryl]ethylphosphonic acid]",> 30,–,–,–,–,–
"CCC(CC)(P(=O)(O)O)P(=O)(O)CC/C=C(\C)CC/C=C(\C)CC/C=C(\C)CCC=C(C)C [BAL9611, tripotassium salt of (E,E,E)-1-ethyl-1-[(4,8,12,16-tetramethyl-3,7,11,15-heptadecatetraenyl)hydroxyphosphoryl]propylphosphonic acid]",1.5,–,induce death for apoptosis,–,–,–
"CC(C)=CCC/C(C)=C/CC/C(C)=C/CC/C(C)=C/CCP(=O)(O)O [BAL9613, dipotassium salt of (E,E,E)-(4,8,12,16-tetramethyl-3,7,11,15-heptadecatetraenyl)phosphonic acid]",> 30,–,–,–,–,–
"CC(C)=CCC/C(C)=C/CC/C(C)=C/CC/C(C)=C/CONS(N)(=O)=O [BAL9614, (E,E,E)-1-[(aminosulfonyl)aminoxy]-3,7,11,15-tetramethyl-2,6,10,14-hexadecatetraene]",11.9,–,–,–,–,–
